Where two headings read alike, the source gives them in different places.
Assays:
[1] = Stability of resorufin in incubation supernatants; format: physicochemical
Description: The stability was assessed by measuring resorufin in the supernatant (n=8) stored in +4 °C and protected from light for several days and measured at days 0, 1, 2, 3, 5 and 8. A pool of microsomes used for the stability study was previously used for study on linearity with microsomal protein. Resorufin concentrations in those samples varied from 0.9 to 8.1 pmol/mL. Stability of resorufin stored in room temperature was assessed using four samples with resorufin concentrations from 1.5 to 2.6 pmol/mL.

[2] = tested on: porcine liver microsomes (EROD); design: method as in Messina et al. [6]; conditions: ref Messina et al. [6]; cited from earlier work
[3] = tested on: porcine liver microsomes (EROD); assay: Enzyme kinetics of resorufin formation from 7-ethoxyresorufin (EROD) in hepatic microsomes; format: in vitro ADME, pig; conditions: 95% confidence interval
Description: (§1) Incubation mixtures contained microsomal protein (0.2 mg), phosphate buffer (pH 7.4, 50 mM) and substrate (2 μM; 7-ethoxyresofurin for EROD activity or 7-methoxyresofurin for MROD activity). Reactions were started by the addition of 1 mM NADPH. The reaction mixture, in a final volume of 500 μL, was incubated in a water bath at 37 °C for 5 min. Reactions were terminated with ice-cold 100% methanol (500 μL), followed by centrifugation at 7,500 × g for 5 min. Resorufin concentrations in the supernatants were measured with HPLC the same day as described above. EROD and MROD activities were expressed as pmol of resorufin per milligram protein and minute.
(§2) The studies were performed by using two pools of microsomes from six entire (pool 1) and six castrated male pigs (pool 2). For the kinetic studies, EROD and MROD activities were determined over the substrate concentration range from 0.0156 to 3.0 μM. […] The final concentration of DMSO in the incubations was below 0.5%.
(§3) Michaelis-Menten parameters (Km and Vmax values) and inhibition constants (Ki) were determined by a GraphPad Prism version 4.0 for Windows, GraphPad Software (San Diego California, USA). Data were additionally assayed by a SigmaPlot Enzyme Kinetics 1.3 software. Visual analysis of Eadie-Hofstee plots was used to categorise enzyme kinetics as mono- or biphasic, i.e. whether one or more enzymes participate in the reaction. When Eadie-Hofstee plots indicated monophasic kinetics, the following equation was applied to estimate kinetic parameters: V=(Vmax*S)/(Km+S); when Eadie-Hofstee plots indicated biphasic kinetics, the following equation was applied: V=(Vmax1*S)/(Km1+S)+ (V max2*S)/(Km2+S).

[4] = tested on: EROD activity (7-ethoxyresorufin O-deethylation); assay: as above; format: in vitro ADME, pig; conditions: male, pig, 95% confidence interval
Description: as §1, §2, §3

CYP1A (MROD activity) = assay: in vitro; conditions: male, pig, pH 7.4, Ki
Description: as §1
(§4) The studies were performed by using two pools of microsomes from six entire (pool 1) and six castrated male pigs (pool 2). […] For the inhibition study, the substrate range was from 0.25 to 2 µM. […] The inhibitors were dissolved in DMSO, and the same volume of DMSO was added to the control incubations. The final concentration of DMSO in the incubations was below 0.5%. All inhibitors were added before the addition of the substrate. […] Inhibition is expressed as the percent of the corresponding incubation control.
(§5) Michaelis-Menten parameters (Km and Vmax values) and inhibition constants (Ki) were determined by a GraphPad Prism version 4.0 for Windows, GraphPad Software (San Diego California, USA). Data were additionally assayed by a SigmaPlot Enzyme Kinetics 1.3 software. […] When Eadie-Hofstee plots indicated monophasic kinetics, the following equation was applied to estimate kinetic parameters: V=(Vmax*S)/(Km+S); when Eadie-Hofstee plots indicated biphasic kinetics, the following equation was applied: V=(Vmax1*S)/(Km1+S)+ (V max2*S)/(Km2+S).

CYP1A (EROD activity) = assay: in vitro; conditions: male, pig, substrate 0.25 to 2 µM
Description: as §1, §4, §5

[5] = tested on: MROD activities in porcine liver microsomes (CYP1A)
Description: as §1, §4, §5

[6] = tested on: EROD activities in porcine liver microsomes (CYP1A); conditions: for EROD activity, % of the control values: 20 μM inhibitor, microsomes from entire and castrated male pigs; for Ki, EROD: substrate 0.25 to 2 µM
Description: as §1, §4, §5

[7] = tested on: porcine liver microsomes (MROD); conditions: 95% confidence interval
[8] = tested on: porcine liver microsomes (MROD); conditions: cited from earlier work
[9] = 20 μM inhibitor, microsomes from entire and castrated male pigs
[10] = microsomes from castrated pigs, substrate 0.25 to 2 µM
[11] = microsomes from entire male pigs, substrate 0.25 to 2 µM

## O=c1ccc2nc3ccc(O)cc3oc-2c1 [Resorufin]
[1]; stored at 4 °C under dark conditions
  Time stable in supernatants: at least 5 days
[1]; stored at room temperature
  Time stable in supernatants: at least 1 day

## CCOc1ccc2nc3ccc(=O)cc-3oc2c1 [7-ethoxyresorufin]
[2]
  Km: 640 nM
[3]; castrated male pigs
  Vmax (CI), EROD high-affinity component: 7.3 (5.5 – 9.0) pmol/min/mg
  Vmax (CI), EROD low-affinity component: 15.2 (12.9 – 17.6) pmol/min/mg
[3]; entire male pigs
  Vmax (CI), EROD high-affinity component: 5.9 (3.1 – 8.6) pmol/min/mg
  Vmax (CI), EROD low-affinity component: 11.7 (9.6 – 13.8) pmol/min/mg
[4]; liver microsomes (pool 1, six entire male pigs), pH 7.4, entire male pigs, read-out: Km (CI), EROD high-affinity component
  Km at 5 min: 10 nM
[4]; liver microsomes (pool 1, six entire male pigs), pH 7.4, entire male pigs, read-out: Km (CI), EROD low-affinity component
  Km at 5 min: 540 nM
[4]; liver microsomes (pool 2, six castrated male pigs), pH 7.4, castrated male pigs, read-out: Km (CI), EROD high-affinity component
  Km at 5 min: 10 nM
[4]; liver microsomes (pool 2, six castrated male pigs), pH 7.4, castrated male pigs, read-out: Km (CI), EROD low-affinity component
  Km at 5 min: 1250 nM

## O=c1cc(-c2ccccc2)oc2c1ccc1ccccc12 [ANF, α-naphthoflavone]
CYP1A (MROD activity)
  Ki at 5 min: 14 nM
CYP1A (EROD activity); liver microsomes (pool 1, six entire male pigs), pH 7.4, probe 7-ethoxyresorufin, 0.25 to 2 µM, Ki, microsomes from entire male pigs
  Ki at 5 min: 31 nM
CYP1A (EROD activity); liver microsomes (pool 2, six castrated male pigs), pH 7.4, probe 7-ethoxyresorufin, 0.25 to 2 µM, Ki, microsomes from castrated pigs
  Ki at 5 min: 96 nM
[5]; [9]
  MROD activity, % of the control values: 30%
[5]; male, pig, 5 min, pH 7.4
  Ki: 18 nM
[6]
  EROD activity, % of the control values: 19–23%

## Cc1c2ccncc2c(C)c2c1[nH]c1ccccc12 [Ellipticine, ellipticine]
CYP1A (MROD activity); [10]
  Ki at 5 min: 19 nM
CYP1A (MROD activity); [11]
  Ki at 5 min: 24 nM
CYP1A (EROD activity); pH 7.4, Ki, microsomes from castrated pigs
  Ki at 5 min: 21 nM
CYP1A (EROD activity); pH 7.4, Ki, microsomes from entire male pigs
  Ki at 5 min: 17 nM
[5]; [9]
  MROD activity, % of the control values: 14–16%
[6]
  EROD activity, % of the control values: 8–10%

## Cc1nc2c([nH]1)c(=O)n(C)c(=O)n2Cc1ccco1 [Furafylline, furafylline]
CYP1A (MROD activity); [10]
  Ki at 5 min: […]
CYP1A (MROD activity); [11]
  Ki at 5 min: […]
[5]; 100 μM inhibitor, pre-incubated 10 min with NADPH, entire and castrated male pigs
  MROD activity, % of the control values: 55–61%
[5]; no pre-incubation of microsomes and inhibitor with NADPH (data not shown)
  Inhibition of MROD activity without pre-incubation: No inhibition
[6]; 10-100 μM, pre-incubated with microsomes and NADPH
  Effect on EROD activities: did not affect EROD activities
[6]; microsomes from castrated pigs
  Ki, EROD: no ^*
[6]; microsomes from entire male pigs
  Ki, EROD: no ^*

## COc1ccc2nc3ccc(=O)cc-3oc2c1 [7-methoxyresorufin]
[7]; castrated male pigs
  Vmax (CI), MROD: 2.6 (2.5 – 2.8) pmol/min/mg
[7]; entire male pigs
  Vmax (CI), MROD: 0.8 (0.7 – 0.9) pmol/min/mg
[8]
  Km: 2200 nM

— paper PMC3345832, “EROD and MROD as Markers of Cytochrome P450 1A Activities in Hepatic Microsomes from Entire and Castrated Male Pigs” (Sensors (Basel, Switzerland), 2009)
